Here are results for 1 compound from US20070275006A1, “IRIDOID GLYCOSIDE COMPOSITION” (priority 2006, published 2007).

In this experiment the test system is Th1 (IL-2, IFN-γ, TNF alpha) and Th2 (IL-4, IL-5, IL-10) cytokines. Nature of the experiment: Th1 & Th2 cytokines in lymph node cells of HBsAg immunized mice by flowcytometry. The format is in vivo. As to conditions: adjuvant containing HBsAg; immunized mice day 28, flowcytometry. The source says: Cytokines (Th1 & Th2 responses) in serum by ELISA (Quantikine, R & D systems) and lymph node cells by flowcytometry collected from immunized mice on day 28th (Quantikine, optia Kit).
High levels of Th1 cytokines were secreted in response to MDP and FCA containing HBsAg.

For `CC(=O)N[C@H]1C(O)O[C@H](CO)[C@@H](O)[C@@H]1O[C@H](C)C(=O)N[C@@H](C)C(=O)N[C@H](CCC(=O)O)C(N)=O` (mixture of isomers) [MDP, Muramyl dipeptide], the “Th1 and Th2 cytokines in lymph nodes cell culture fluid” value was “very low for the Th2 cytokines and increased Th1 type of immune response”.
